“Also recorded” adds a separate entry of the source. Where two headings read alike, the source gives them in different places.
Legend:
in vitro = details: PAMPA
Protocol: In the same assay, 10 commercial drugs with known CNS penetration were also tested as positive controls, and their experimental values were compared to reported values (Table 1).

[1] = In vivo BBB penetration experiment, LC-MS/MS of plasma and brain; parameters: species or system CD-1 male mice
Protocol: Briefly, ten week old CD-1 male mice were purchased from Harlan Laboratories (Frederich, Md.). Compound 9 was diluted to a concentration of 15 mg/mL in a solution with 2% DMSO and 10% Cremophor in PBS, and was administered via oral gavage at a final dosage of 50 mg/kg. Two groups of mice (n=6/group) were used to determine the plasma and brain concentrations of the compound at various time-points. […] Afterwards, the right atrium was removed to allow exsanguination, and the left ventricular apex was cannulated with a 24 G needle and perfused with 30 mL of warm (37° C.) heparinized normal saline solution to enable perfusion of all the organs and complete blood washout. The perfused brains were then collected, rapidly washed in normal saline, blot-dried, and frozen in liquid nitrogen. Brain samples were then analyzed by the LC-MS/MS.
For brain samples, half a brain was weighed and diluted with 1.0 mL of acetonitrile and then mixed well. For plasma samples, 0.01 mL of plasma was diluted with 0.99 mL of acetonitrile and then mixed well. After mixing, samples were centrifuged at 15,000 rpm and the supernatant was transferred to a new tube and evaporated to dryness using spin vacuum. The samples were then reconstituted with an 80:20 solution of 1% acetic acid in acetonitrile: 1% acetic acid in water, and a volume of 0.025 mL was then injected into the LC-MS/MS. The LC/MS/MS method employed positive electrospray ionization (ESI) with a selected reaction monitoring (SRM) mode. Compound 9 was monitored using the following SRM transitions: 381→174, 130, and 159. Chromatographic separation was achieved under gradient conditions using a Waters Acquity® UPLC, with a reversed phase column (Gemini 5u C18 110 Å, 100 mm×2.0 mm; 5 um, Phenomenex Inc., Torrance, Calif.) with a mobile phase composition of 1% acetic acid in water (mobile phase A) and 1% acetic acid in acetonitrile (mobile phase B). The initial gradient consisted of 30% B for 1 min, 30% to 95% B from 1 to 3 min, hold for 1 min at 95% B, and then equilibrate at 30% B for 2.5 min. The total run time was 6.5 min. Results were processed using Analyst 1.5.2 software. Absolute recovery, precision and accuracy, and matrix effects experiments produced an efficient method to continue sample analysis. Calibration curves were made with freshly prepared samples and calculated using peak area versus concentration with a linear or quadratic regression. Accuracy fell in the range of 85% to 115%.
To accurately quantify the amount of 7 that is delivered into brain tissue and rule out the possibility of biased interpretation from vascular trapping, we perfused the mice to wash out the vascular blood completely prior to collecting brain tissues. After oral administration, plasma samples were collected at 0.25, 0.5, 1, and 24 hours, and brain samples were collected at 1 and 24 hours.

APP/PS1 transgenic mice = assay: Oral treatment of APP/PS1 transgenic AD mouse model; assay type: in vivo; details: 50 mg/kg oral gavage, 12 weeks, 4 month-old APP/PS1 mice
Protocol: FIG. 8A-D. AM24 (7) (50 mg/kg) oral gavage treatment in 4 month-old APP/PS1 transgenic animals during 12 weeks. Immunochemistry was performed using anti-Aβ 1-16 Clone 82E1 (1/1000, Mouse) in (A) control and (B) AM24-treated mice. Percent area of (C) Cortex (Cx) and (D) Cortex plus Hippocampus (CxHp) was measured. Statistical analysis was performed by T test *p<0.05. Experiment was assessed with APP/PS1-saline (n=4) and APP/PS1-AM24 (n=7) mice. Scale bar represents 500 μm.
FIG. 9A-C. AM24 (7) (50 mg/kg) oral gavage treatment during 12 weeks in 4 month-old APP/PS1 transgenic animals. Immunochemistry was performed using anti-Aβ 1-16 Clone 82E1 (1/1000, Mouse) in (A) control and (B) AM24-treated mice. (C) Percent area Hippocampus (Hp) was measured. Experiment was assessed with APP/PS1-saline (n=4) and APP/PS1-AM24 (n=7) mice. […] Scale bar represents 200 μm.
FIG. 10A-E. AM24 (7) (50 mg/kg) oral gavage treatment during 12 weeks in 4 month-old APP/PS1 transgenic animals. Immunochemistry in (A) control and (B) AM24-treated mice and (C) Western Blot were performed using anti-GFAP (1/250 and 1/2000 respectively, Rabbit). (D) Band Intensity was compared with saline treated APP/PS1 mice. (E) Percent area Hippocampus (Hp) was measured. Experiment was assessed with APP/PS1-saline (n=4) and APP/PS1-AM24 (n=7) mice. […] Scale bar represents 200 μm. […]
FIG. 15A-B. AM24 (7) (50 mg/kg) oral gavage treatment in 4 month-old APP/PS1 transgenic animals during 12 weeks. (A) Western-blot was performed using anti-HNE (1/2000, Rabbit) stress marker. (B) Band Intensity was compared with saline treated APP/PS1 mice. Experiment was assessed with APP/PS1-saline (n=4) and APP/PS1-AM24 (n=7) mice. Statistical analysis was performed by T test ** p<0.01.
FIG. 16A-B. AM24 (50 mg/kg) oral gavage treatment in 4 month-old APP/PS1 transgenic animals during 12 weeks. (A) Mitochondrial complex Western-blot was performed using OXPhOS cocktail antibody (1/2000, Mouse) to measure I, II, III and V Complex, and MTCO CIV for complex IV (1/2000, Mouse). (B) Band Intensity was compared with saline treated APP/PS1 mice. Experiment was assessed with APP/PS1-saline (n=4) and APP/PS1-AM24 (n=7) mice. Statistical analysis was performed by T test **p<0.01.
APP/PS1 (amyloid precursor protein/presenilin-1) transgenic mice are a well known model for Alzheimer's disease. In this study, APP/PS1 mice were treated with 50 mg/kg of AM24 (compound 7) and the effects on cell type/morphology and the levels of several neuroinflammatory and stress markers was observed. […] However, there was no decrease in hippocampal plaques (FIG. 9A-C). Additionally, there was no change in the expression of glial fibrillary acid protein (GFAP), a neuroinflammation marker, in the hippocampus of AM24 treated animals (FIG. 10A-E).

COc1ccc2[nH]cc(CCNC(=O)CC(=O)CCc3ccc(O)cc3)c2c1 [Compound 7, 5-(4-hydroxy-phenyl)-3-oxo-pentanoic acid [2-(5-methoxy-1H-indol-3-yl)-ethyl]-amide]
Papp (in vitro): 7.9 ± 0.6 ×10⁻⁶ cm/s
concentration at 1 h ([1]; male, CD-1, mouse, brain, po, 50 mg/kg, perfused mice, n = 6, 1 h, read-out: Brain concentration, 1 h): 555 ± 188 nM
concentration at 24 h ([1]; male, CD-1, mouse, brain, po, 50 mg/kg, perfused mice, n = 6, 24 h, read-out: Brain concentration, 24 h): 47.4 ± 11.2 nM
concentration at 15 min ([1]; male, CD-1, mouse, plasma, po, 50 mg/kg, mice, n = 6, 15 min): 773 ± 310 nM
concentration at 30 min ([1]; male, CD-1, mouse, plasma, po, 50 mg/kg, mice, n = 6, 30 min): 795 ± 301 nM
concentration at 1 h ([1]; male, CD-1, mouse, plasma, po, 50 mg/kg, mice, n = 6, 1 h, read-out: Plasma concentration, 1 h): 883 ± 350 nM
concentration at 24 h ([1]; male, CD-1, mouse, plasma, po, 50 mg/kg, mice, n = 6, 24 h, read-out: Plasma concentration, 24 h): 30.5 ± 12 nM
BBB penetration after oral administration ([1]; oral 50 mg/kg, mice): confirmed to cross the blood-brain barrier; also recorded: confirming its BBB permeability
Plasma concentration, 15 min ([1]; oral 50 mg/kg, mice, n = 6, 15 min): 773.80 ± 309.86 nM
Plasma concentration, 1 h ([1]; oral 50 mg/kg, mice, n = 6, 1 h): 883.12 ± 350.36 nM
Plasma concentration, 24 h ([1]; oral 50 mg/kg, mice, n = 6, 24 h): 30.53 ± 11.96 nM
Brain concentration, 1 h ([1]; oral 50 mg/kg, perfused mice, n = 6, 1 h): 555.40 ± 188.44 nM
Brain concentration, 24 h ([1]; oral 50 mg/kg, perfused mice, n = 6, 24 h): 47.41 ± 11.19 nM
NADH Dehydrogenase-Complex I (mitochondrial complex Western blot) (APP/PS1 transgenic mice): powerful increase
cortical and cortex/hippocampal amyloid plaques (APP/PS1 transgenic mice): significant decrease
expression of 8-Hydroxyguanosine (80HG) in the hippocampus (APP/PS1 transgenic mice): significant decrease
expression of heme-oxygenase-1 (HO-1) (APP/PS1 transgenic mice): no change
total number and type of glial cells (hippocampus, IBA-1) (APP/PS1 transgenic mice): remained constant
expression of 4-hydroxy-2-nonenal (HNE) (APP/PS1 transgenic mice; vs saline): significant decrease
expression of GFAP in the hippocampus (APP/PS1 transgenic mice; listed as AM24): no change; also recorded: no differences were detected
hippocampal amyloid plaques (APP/PS1 transgenic mice; listed as AM24): no decrease; also recorded: no differences were detected

— patent US9738605B2, “Hybrid compounds of curcumin and melatonin as neuroprotectants for neurodegenerative disorders” (VIRGINIA COMMONWEALTH UNIVERSITY, priority 2013, dated 2017)
